Calls of active or inactive are those of the source. The calls are words filed in the database; no cut-off is given here.
Experiments:
in vitro = conditions: PAMPA
Acetylcholinesterase = Acetylcholinesterase (Electrophorus electricus, UniProt O42275); assay: Inhibition of Electrophorus electricus AchE using […] as substrate incubated for 10 mins followed by substrate addition measured at 0 to 180 secs by Ellman's method
[1] = target: Amyloid-beta precursor protein (Homo sapiens) (UniProt P05067); assay: Inhibition of amyloid beta (1 to 42) (unknown origin) self-induced aggregation at 25 uM measured after 46 to 48 hrs by Thioflavin binding assay relative to control; conditions: time 46-48 hrs
Cholinesterase = Cholinesterase (Equus caballus, UniProt P81908)
Description: Inhibition of equine serum BchE using S-butyryl thiocholine iodide as substrate incubated for 10 mins followed by substrate addition measured at 0 to 180 secs by Ellman's method

PC-12 = assay: Cytoprotective activity against H2O2-induced oxidative damage in rat PC-12 cells assessed as cell viability at 1 uM preincubated for 4 hrs followed by H2O2 treatment for another 24 hrs by MTT assay; type: functional, cell-based; conditions: time 28.0 hrs

Sequence of Amyloid-beta precursor protein (Homo sapiens) (P05067 whole entry): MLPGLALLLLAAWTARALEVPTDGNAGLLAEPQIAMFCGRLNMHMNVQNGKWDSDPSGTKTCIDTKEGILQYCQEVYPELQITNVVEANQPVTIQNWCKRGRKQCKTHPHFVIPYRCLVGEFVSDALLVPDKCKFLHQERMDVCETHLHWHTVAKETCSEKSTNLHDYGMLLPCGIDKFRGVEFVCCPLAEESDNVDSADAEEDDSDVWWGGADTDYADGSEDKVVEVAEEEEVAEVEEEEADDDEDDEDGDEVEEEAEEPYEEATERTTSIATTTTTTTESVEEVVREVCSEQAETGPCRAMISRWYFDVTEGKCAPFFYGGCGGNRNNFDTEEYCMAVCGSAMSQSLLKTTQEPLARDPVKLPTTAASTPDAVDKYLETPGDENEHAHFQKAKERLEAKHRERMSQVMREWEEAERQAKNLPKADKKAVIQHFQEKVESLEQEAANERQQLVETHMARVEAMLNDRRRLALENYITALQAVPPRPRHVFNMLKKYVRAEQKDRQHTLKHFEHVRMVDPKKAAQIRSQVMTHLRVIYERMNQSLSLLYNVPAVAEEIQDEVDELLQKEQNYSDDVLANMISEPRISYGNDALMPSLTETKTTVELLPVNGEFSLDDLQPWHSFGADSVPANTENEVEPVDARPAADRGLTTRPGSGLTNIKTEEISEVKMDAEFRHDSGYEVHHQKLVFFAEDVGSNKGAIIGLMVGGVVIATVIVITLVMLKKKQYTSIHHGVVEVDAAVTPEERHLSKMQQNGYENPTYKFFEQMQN
Sequence of Cholinesterase (P81908 whole entry): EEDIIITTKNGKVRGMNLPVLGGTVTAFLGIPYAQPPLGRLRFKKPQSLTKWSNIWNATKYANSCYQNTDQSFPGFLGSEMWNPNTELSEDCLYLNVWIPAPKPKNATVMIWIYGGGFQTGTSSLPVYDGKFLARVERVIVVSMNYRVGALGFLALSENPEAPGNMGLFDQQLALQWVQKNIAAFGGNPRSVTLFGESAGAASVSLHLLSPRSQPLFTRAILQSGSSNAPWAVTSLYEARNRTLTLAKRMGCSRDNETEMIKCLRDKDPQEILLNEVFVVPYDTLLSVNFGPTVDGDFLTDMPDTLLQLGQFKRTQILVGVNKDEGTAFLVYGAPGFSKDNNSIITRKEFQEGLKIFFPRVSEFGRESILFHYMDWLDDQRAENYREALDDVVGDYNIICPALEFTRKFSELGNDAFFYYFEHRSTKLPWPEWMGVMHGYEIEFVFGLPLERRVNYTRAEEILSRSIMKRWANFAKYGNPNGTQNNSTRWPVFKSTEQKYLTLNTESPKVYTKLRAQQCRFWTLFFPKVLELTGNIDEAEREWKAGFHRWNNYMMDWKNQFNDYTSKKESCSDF
Sequence of Acetylcholinesterase (O42275 whole entry): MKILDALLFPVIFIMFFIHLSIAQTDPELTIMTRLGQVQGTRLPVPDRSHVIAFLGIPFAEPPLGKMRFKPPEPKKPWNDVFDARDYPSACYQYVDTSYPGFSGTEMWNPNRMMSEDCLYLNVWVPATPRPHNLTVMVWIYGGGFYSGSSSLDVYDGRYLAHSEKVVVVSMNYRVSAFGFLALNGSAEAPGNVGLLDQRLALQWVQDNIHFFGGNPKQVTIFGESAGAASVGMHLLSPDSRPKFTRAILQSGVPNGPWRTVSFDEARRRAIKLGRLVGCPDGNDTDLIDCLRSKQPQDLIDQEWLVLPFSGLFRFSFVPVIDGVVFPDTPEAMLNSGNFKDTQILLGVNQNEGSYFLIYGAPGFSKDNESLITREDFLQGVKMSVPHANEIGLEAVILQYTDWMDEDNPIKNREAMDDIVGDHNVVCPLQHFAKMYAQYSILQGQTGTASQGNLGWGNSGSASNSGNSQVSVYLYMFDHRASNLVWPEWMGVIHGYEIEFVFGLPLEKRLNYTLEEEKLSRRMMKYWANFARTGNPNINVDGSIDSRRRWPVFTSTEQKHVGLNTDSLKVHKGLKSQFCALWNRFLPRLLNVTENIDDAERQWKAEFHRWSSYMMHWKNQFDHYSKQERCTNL

Row | Papp (in vitro) [×10⁻⁶ cm/s] | SMILES | IC50 (Acetylcholinesterase) [nM] | inhibition [1] [%] | IC50 (Cholinesterase) [nM] | Activity (PC-12)
1 | 5.7 | Clc1cccc(Cl)c1N=C1NCCN1 [CLONIDINE] |  |  |  | 
2 |  | CN1CCN(CCCOc2cc3c4c(nccc4c2)-c2ccccc2C3=O)CC1 | 820 | 29.1 | > 100000 | 
3 |  | O=C1c2ccccc2-c2nccc3cc(OCCCCN4CCN(CCO)CC4)cc1c23 | 920 | 26.1 | > 100000 | Active
4 |  | CN1CCN(CCCCOc2cc3c4c(nccc4c2)-c2ccccc2C3=O)CC1 | 1410 | 25.4 | > 100000 | Active
5 |  | O=C1c2ccccc2-c2nccc3cc(OCCN4CCOCC4)cc1c23 | 19700 | 24.4 | > 100000 | Active
6 |  | O=C1c2ccccc2-c2nccc3cc(OCCCN4CCCCC4)cc1c23 | 140 | 41.2 | 35300 | Active
7 |  | O=C1c2ccccc2-c2nccc3cc(OCCCCN4CCCCC4)cc1c23 | 150 | 32.1 | 15400 | Active
8 |  | O=C1c2ccccc2-c2nccc3cc(OCCCN4CCN(CCO)CC4)cc1c23 | 190 | 9.7 | > 100000 | Active

— ChEMBL document CHEMBL5120794, “Development of 5-hydroxyl-1-azabenzanthrone derivatives as dual binding site and selective acetylcholinesterase inhibitors” (Eur J Med Chem, 2022)
